This is an account of results in patent publication US20220117266A1, “NICKEL CHELATION THERAPY” (priority 2019, published 2022).

For experiment [1], the system named is C. jejuni (strain 81-176, ATCC BAA-2151). The experiment in a line: Growth inhibition, solid plates (CFU). Type of experiment: cell-based, Campylobacter jejuni.
For experiment [2], the system named is Helicobacter pylori 43504. The experiment in a line: Antibiofilm assay on established biofilm. The experiment is classed as cell-based. The settings on record: DMG added for additional 24 hours. As for the experimental part: Antibiofilm assay. H. pylori culture at OD600=0.15 was added to a non-tissue culture treated polystyrene 96 well plate (Falcon) and incubated at 37° C. micro-aerobically without shaking for 48 hours. After the initial incubation, the supernatant was removed from the wells and BHI+0.4% β-cyclodextran was added back to the wells with or without Na2DMG at various concentrations. The plate was then incubated an additional 24 hours. Then, the crystal violet biofilm assay was performed as above.

The subject of another experiment is MDR S. Typhimurium. Nature of the experiment: Galleria mellonella infection model. Type of experiment: in vivo. Particulars: 5 μl of 250 mM DMG (approx. 0.38 mg) injected five to ten minutes prior to bacterial challenge. Here is the method: (§1) Attempts to establish a reliable K. pneumoniae infection model in mice failed, so an alternate animal model was chosen.
(§2) Galleria mellonella (wax moth) experiments. Wax moth larvae were obtained from local pet stores, from two different suppliers: the bug company (Ham Lake, Minn.; www.ebugco.com) and Timberline (Marion, Ill.; www.timberlinefresh.com). Larvae were stored in wood shavings at 4° C. in the dark and used within two weeks after purchase. Only larvae weighing 300±50 mg were selected for the experiments. Groups of ten larvae were used for each experiment. The site of injection (last right or left proleg) was disinfected with ethanol 70% (vol/vol) before and after each injection. A 10 μL-Hamilton syringe fitted with a […] needle (Becton Dickinson, Franklin Lakes, N.J.) was used to inject 5 μL. After injection, larvae were kept in 9.2-cm Petri dishes at 37° C. in the dark with no food. Larvae were monitored daily for […] and mortality (as defined by change of pigmentation and absence of response following physical stimulation) was recorded. […] Bacterial suspensions were prepared as follows: cells were grown overnight in 5 mL of Mueller Hinton broth, harvested, washed once, and resuspended in sterile 0.8% NaCl to a final OD600 of 0.1 (approximately 10^8 CFU/mL, as determined by CFU counts on serially diluted samples).

Another experiment deals with MDR K. pneumoniae. Nature of the experiment: Galleria mellonella infection model. Type of experiment: in vivo. The settings on record: 5 μl of 250 mM DMG (approx. 0.38 mg) injected five to ten minutes prior to bacterial challenge. As for the experimental part:
as §1, §2

For experiment [3], the system named is S. Typhimurium (ATCC 14028). Nature of the experiment: DMG growth inhibition in liquid culture (CFU/mL). The experiment is classed as cell-based, Salmonella enterica serovar Typhimurium. Here is the method: (§3) Growth conditions. All strains were routinely grown on LB agar plates or in LB broth. For DMG-growth inhibition study, S. Typhimurium strains ATCC 14028 and ATCC 700408 were grown in M9 minimal medium (M9 minimal salts, 0.4% glucose, 2 mM MgSO4, 0.1 mM CaCl2), and 1 μg/mL thiamine, pH 7.2). K. pneumoniae was grown in “W-U” medium, modified from Bender et al. 1977 129:1001-1009, containing 60 mM K2HPO4, 33 mM KH2PO4, 0.4 mM MgSO4, 0.4% Glucose, and 5 mM urea (instead of KNO3), pH 7.4. Briefly, overnight cultures of S. Typhimurium and K. pneumoniae were harvested, spun at 14,000 rpm for five minutes, washed once with either M9 (S. Typhimurium) or W-U (K. pneumoniae) and resuspended in either M9 (S. Typhimurium) or W-U (K. pneumoniae). […] Cells were incubated for 24 hours at 37° C. with shaking at 250 rpm, then serially diluted in PBS and 5 μL of each dilution was spotted in triplicate on LB plate. Colony forming units (CFU) were counted after 16 hours at 37° C. Each growth experiment was done at least three times.

Experiment [4] concerns MDR S. Typhimurium (ATCC 700408). Nature of the experiment: DMG growth inhibition in liquid culture (CFU/mL). The experiment is classed as cell-based, Salmonella enterica serovar Typhimurium. Here is the method: as §3

As to `CC(=NO)C(C)=NO` [DMG, dimethylglyoxime], the “effect on growth (CFUs)” value in experiment [1] (BHI plates, 5 mM DMG + CuSO4 1 μM to 500 μM, no detectable growth (detection limit: 200 CFUs)) is reported as “bactericidal”. For the same compound, in experiment [1] (BHI plates, 5 mM DMG, 24 hours), the “effect on growth (CFUs, colony size)” value is “bacteriostatic”. For the same compound, the effect on growth entry in experiment [1] (DMG (2 mM)/Cu (0.5 mM) combination) is reported as “bactericidal”. The “effect on established (48 hours of growth) biofilm” value in experiment [2] is given as “able to counteract”. Further, the “survival rate of larvae” value stood at 60% with MDR S. Typhimurium and 40% in the experiment with MDR K. pneumoniae. The “effect on bacterial growth” value in experiment [3] (DMG at 2.5 mM, 5 mM, or 7.5 mM) is given as “no measurable effect”; in experiment [4] (DMG at 2.5 mM, 5 mM, or 7.5 mM), “no measurable effect”. The inhibition at 10000 µM was above 100% in experiment [3] (Salmonella enterica, 24 h) and above 100% in experiment [4] (Salmonella enterica, 24 h).
